Data set [1] addresses P-glycoprotein (P-gp) (Homo sapiens, UniProt P08183). Nature of the data set: P-glycoprotein substrate / inhibitor status. The class given is in vitro ADME. The text has this: (§1) Based on a validated physiological-based PK model simulation, strong CYP3A4 inhibitors may increase the exposure (e.g., area under the concentration-time curve) of unconjugated MMAE by ˜50% while acMMAE PK is not affected. Concomitant medications that are strong CYP3A4 inhibitors are considered cautionary as they may potentially lead to adverse reactions, which require close monitoring. […] Concomitant medications that are P-gp inhibitors are considered cautionary as they may potentially lead to adverse reactions, which require close monitoring.

The target of data set [2] is CYP3A4 (Homo sapiens, UniProt P08684). Nature of the data set: In vitro metabolism of unconjugated MMAE. The note with it: in vitro data. Type of data set: in vitro ADME.
Sequence of CYP3A4 (P08684 whole entry): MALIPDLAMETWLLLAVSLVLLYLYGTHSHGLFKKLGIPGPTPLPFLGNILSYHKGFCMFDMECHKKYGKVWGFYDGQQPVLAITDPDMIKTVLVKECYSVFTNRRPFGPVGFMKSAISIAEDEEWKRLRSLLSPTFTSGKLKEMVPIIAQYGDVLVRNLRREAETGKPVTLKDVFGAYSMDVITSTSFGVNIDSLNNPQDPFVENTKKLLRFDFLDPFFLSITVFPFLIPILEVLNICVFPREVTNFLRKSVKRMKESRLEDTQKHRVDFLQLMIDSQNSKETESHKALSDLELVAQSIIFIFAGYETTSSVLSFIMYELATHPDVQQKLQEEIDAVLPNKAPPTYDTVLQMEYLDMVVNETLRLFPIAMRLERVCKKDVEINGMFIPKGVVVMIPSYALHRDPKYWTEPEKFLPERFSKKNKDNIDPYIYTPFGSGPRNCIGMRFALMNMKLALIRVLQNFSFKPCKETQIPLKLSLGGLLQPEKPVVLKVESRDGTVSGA
Text: as §1

SMILES strings stand for the structures. Where a SMILES comes first, the peptide text is derived from it. [ ]: non-standard residue; d: D form. The star is where a group is joined. Dolaproine = CO[C@@H]([C@@H]1CCCN1)[C@@H](C)C(=O)O; Dil = CC[C@H](C)[C@H](NC)[C@@H](CC(=O)O)OC; X1 = C[C@@H](N*)[C@@H](O)c1ccccc1; NMeV = CN[C@H](C(=O)O)C(C)C

Sequence of P-glycoprotein (P-gp) (P08183 whole entry): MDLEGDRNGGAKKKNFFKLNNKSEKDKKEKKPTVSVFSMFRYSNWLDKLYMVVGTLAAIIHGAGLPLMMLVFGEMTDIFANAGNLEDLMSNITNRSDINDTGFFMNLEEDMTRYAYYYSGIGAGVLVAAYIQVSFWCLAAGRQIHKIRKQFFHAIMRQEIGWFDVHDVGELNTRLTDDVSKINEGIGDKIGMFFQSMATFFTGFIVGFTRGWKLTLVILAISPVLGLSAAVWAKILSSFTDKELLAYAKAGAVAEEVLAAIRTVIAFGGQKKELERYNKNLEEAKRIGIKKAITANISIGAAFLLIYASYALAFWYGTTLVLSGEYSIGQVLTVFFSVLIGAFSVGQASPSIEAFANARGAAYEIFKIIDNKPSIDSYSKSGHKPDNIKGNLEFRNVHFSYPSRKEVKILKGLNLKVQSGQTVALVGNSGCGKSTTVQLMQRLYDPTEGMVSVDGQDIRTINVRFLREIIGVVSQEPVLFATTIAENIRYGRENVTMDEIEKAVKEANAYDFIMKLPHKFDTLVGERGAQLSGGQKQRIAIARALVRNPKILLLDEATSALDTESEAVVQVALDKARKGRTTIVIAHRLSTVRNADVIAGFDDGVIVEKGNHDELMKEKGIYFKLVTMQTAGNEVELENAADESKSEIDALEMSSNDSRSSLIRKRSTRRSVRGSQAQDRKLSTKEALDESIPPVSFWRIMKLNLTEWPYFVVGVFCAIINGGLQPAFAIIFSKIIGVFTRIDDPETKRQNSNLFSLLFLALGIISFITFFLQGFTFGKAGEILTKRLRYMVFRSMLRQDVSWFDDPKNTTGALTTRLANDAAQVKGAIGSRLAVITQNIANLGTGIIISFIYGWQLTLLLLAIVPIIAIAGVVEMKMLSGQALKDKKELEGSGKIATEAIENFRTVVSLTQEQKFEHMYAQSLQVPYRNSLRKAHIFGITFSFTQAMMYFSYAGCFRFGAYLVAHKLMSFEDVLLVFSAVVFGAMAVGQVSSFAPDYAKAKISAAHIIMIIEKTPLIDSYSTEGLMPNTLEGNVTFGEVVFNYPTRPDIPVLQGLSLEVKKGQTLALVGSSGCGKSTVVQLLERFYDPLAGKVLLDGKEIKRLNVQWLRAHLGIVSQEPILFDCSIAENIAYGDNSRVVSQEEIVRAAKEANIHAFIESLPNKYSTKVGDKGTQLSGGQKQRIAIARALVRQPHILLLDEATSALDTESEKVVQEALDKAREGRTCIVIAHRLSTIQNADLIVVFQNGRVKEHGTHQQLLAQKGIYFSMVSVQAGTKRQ

For the compound `CC[C@H](C)[C@@H]([C@@H](CC(=O)N1CCC[C@H]1[C@H](OC)[C@@H](C)C(=O)N[C@H](C)[C@@H](O)c1ccccc1)OC)N(C)C(=O)[C@@H](NC(=O)[C@@H](NC)C(C)C)C(C)C` [MMAE, monomethylauristatin E] (H-[NMeV]V[Dil][Dolaproine]-X1), in data set [1], the P-gp inhibitor result is recorded as “not a P-gp inhibitor”. In addition, in data set [2], the “metabolism of unconjugated MMAE by CYP3A4” value was “mainly metabolized by CYP3A4”.

These data come from patent US20240336697A1, “METHODS OF USING ANTI-CD79B IMMUNOCONJUGATES TO TREAT DIFFUSE LARGE B-CELL LYMPHOMA” (Genentech, Inc., priority 2021, published 2024).
